Data from patent publication US7429660B2, “ATM inhibitors” (Kudos Pharmaceuticals Limited, priority 2003, dated 2008).
pIC50: −log10 of the molar value.

biological target: T1, ATM protein immunoprecipitated from HeLa cell nuclear extract (Homo sapiens, UniProt Q13315); assay: In vitro ATM inhibition assay (phosphorylation of GSTp53N66 on serine 15, chemiluminescent detection); type: biochemical; details: read-out: IC50 values (the concentration at which 50% of the enzyme activity is inhibited), ATM inhibition; also: tested normally from 100 µM down to 0.1 nM
T1 construct: ATM protein was immunoprecipitated from HeLa cell nuclear extract; endogenous in cells; host or cells: HeLa cell nuclear extract (immunoprecipitated with rabbit polyclonal anti-ATM antiserum)
T1 sequence (Q13315 whole entry): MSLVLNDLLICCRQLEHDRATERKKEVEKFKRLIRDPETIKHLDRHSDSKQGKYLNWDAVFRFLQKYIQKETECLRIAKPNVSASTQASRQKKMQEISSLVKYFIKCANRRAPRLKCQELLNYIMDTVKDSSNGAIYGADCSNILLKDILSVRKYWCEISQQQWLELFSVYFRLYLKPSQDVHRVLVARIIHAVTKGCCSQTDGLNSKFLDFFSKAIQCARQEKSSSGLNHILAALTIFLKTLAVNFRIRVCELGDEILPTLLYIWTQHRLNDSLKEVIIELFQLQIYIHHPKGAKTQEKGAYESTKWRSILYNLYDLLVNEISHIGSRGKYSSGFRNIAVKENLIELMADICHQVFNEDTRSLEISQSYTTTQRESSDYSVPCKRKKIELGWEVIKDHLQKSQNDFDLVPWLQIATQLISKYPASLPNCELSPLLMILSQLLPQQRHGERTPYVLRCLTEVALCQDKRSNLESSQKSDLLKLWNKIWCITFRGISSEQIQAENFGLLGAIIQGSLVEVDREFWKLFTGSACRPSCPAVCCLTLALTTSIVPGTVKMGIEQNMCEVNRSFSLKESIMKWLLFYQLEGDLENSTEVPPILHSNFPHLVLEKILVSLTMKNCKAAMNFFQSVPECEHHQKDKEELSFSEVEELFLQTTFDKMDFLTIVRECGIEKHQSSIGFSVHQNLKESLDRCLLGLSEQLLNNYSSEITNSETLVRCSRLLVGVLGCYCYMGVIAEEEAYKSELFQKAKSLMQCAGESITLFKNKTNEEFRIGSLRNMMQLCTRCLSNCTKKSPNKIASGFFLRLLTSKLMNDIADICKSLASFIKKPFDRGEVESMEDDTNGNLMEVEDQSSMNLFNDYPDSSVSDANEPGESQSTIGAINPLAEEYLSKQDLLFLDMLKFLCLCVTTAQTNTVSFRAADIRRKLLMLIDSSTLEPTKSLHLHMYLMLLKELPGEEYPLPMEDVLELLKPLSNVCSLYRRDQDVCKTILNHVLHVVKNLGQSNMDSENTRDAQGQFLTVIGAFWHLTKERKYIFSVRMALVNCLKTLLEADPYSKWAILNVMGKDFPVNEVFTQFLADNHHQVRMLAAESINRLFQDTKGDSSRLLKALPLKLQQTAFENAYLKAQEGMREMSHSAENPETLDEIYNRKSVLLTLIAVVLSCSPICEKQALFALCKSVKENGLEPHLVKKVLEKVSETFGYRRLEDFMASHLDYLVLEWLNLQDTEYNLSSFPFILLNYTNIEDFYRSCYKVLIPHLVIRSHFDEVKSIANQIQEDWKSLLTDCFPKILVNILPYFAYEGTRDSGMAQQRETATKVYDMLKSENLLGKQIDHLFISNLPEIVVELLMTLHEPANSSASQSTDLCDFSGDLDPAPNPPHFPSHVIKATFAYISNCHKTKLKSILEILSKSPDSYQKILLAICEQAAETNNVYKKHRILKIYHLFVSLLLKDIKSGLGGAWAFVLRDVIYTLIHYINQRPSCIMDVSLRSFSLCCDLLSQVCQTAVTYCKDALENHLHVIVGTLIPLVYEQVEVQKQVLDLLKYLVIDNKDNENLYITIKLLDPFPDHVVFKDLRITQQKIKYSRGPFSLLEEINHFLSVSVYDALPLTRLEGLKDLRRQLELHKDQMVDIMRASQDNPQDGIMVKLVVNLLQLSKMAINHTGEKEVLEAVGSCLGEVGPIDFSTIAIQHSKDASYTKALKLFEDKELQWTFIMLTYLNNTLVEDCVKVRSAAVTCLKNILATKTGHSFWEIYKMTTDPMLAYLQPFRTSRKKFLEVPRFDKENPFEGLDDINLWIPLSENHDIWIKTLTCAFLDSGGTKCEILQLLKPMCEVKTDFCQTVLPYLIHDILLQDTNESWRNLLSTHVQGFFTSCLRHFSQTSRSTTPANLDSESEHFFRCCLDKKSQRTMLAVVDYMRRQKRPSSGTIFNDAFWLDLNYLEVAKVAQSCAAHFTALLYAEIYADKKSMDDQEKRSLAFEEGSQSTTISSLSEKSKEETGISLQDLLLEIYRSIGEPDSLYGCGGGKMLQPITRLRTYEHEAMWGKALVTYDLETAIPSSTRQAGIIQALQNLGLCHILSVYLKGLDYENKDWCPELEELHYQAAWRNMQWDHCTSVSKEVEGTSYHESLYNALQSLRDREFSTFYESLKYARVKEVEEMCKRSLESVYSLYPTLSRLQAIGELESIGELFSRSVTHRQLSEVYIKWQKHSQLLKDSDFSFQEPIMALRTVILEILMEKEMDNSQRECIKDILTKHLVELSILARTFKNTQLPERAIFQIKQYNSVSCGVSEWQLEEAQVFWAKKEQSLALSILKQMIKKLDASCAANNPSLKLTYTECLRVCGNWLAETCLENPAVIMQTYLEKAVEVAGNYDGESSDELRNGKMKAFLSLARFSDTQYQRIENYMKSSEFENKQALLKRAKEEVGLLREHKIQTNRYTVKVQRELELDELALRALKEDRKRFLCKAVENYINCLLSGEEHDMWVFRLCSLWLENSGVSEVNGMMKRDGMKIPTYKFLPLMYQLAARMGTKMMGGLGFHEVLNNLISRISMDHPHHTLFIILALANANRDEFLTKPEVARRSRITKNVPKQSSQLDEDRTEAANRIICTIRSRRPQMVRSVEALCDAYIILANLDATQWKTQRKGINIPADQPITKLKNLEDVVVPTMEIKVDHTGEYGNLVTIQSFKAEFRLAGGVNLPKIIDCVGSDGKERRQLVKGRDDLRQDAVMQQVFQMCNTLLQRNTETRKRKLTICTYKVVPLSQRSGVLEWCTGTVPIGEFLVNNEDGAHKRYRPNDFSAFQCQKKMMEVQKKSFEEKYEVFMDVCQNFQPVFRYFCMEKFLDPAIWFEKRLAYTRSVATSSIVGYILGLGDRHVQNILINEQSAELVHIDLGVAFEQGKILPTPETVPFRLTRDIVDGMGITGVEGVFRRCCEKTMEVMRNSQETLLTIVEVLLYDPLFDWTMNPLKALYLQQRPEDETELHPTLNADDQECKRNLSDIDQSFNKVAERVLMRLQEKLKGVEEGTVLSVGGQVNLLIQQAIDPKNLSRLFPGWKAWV
Experimental: In order to assess the inhibitory action of the compounds against ATM in vitro, the following assay was used to determine IC50 values. ATM protein was immunoprecipitated from HeLa cell nuclear extract using rabbit polyclonal anti-sera raised to the C-terminal ˜500 amino-acid residues of the human ATM protein. […] 10 μl of immunoprecipitated ATM in Buffer C (50 mM Hepes, pH 7.4, 6 mM MgCl2, 150 mM NaCl, 0.1 mM sodium orthovanadate, 4 mM MnCl2, 0.1 mM dithiothreitol, 10% glycerol) was added to 32.5 μl of buffer C containing 1 μg of the ATM substrate GSTp53N66 in a V-bottomed 96 well polypropylene plate. The GSTp53N66 substrate is the amino terminal 66 amino acid residues of human wild type p53 fused to glutathione S-transferase. […] Varying concentrations of inhibitor were then added. […] After 10 minutes of incubation at 37° C., the reactions were initiated by the addition of 5 μl of 500 μM Na-ATP. After 1 hour with shaking at 37° C., 150 μl of phosphate buffered saline (PBS) was added to the reaction and the plate centrifuged at 1500 rpm for 10 minutes. 5 μl of the reaction was then transferred to a 96 well opaque white plate containing 45 μl of PBS to allow the GSTp53N66 substrate to bind to the plate wells. The plate was covered and incubated at room temperature for 1 hour with shaking before discarding the contents. The plate wells were washed twice by the addition of PBS prior to the addition of 3% (w/v) bovine serum albumin (BSA) in PBS. The plate was incubated at room temperature for 1 hour with shaking before discarding the contents and washing twice with PBS. To the wells, 50 μl of a 1:10,000 dilution of primary phosphoserine-15 antibody (Cell Signaling Technology, #9284L) in 3% BSA/PBS was added to detect the phosphorylation event on the serine 15 residue of p53 elicited by the ATM kinase. […] The wells were then washed four times with PBS before the addition of chemiluminescence reagent (NEN Renaissance, NEL105). The plate was then shaken briefly, covered with a transparent plate seal and transferred to a TopCount NXT for chemiluminescent counting. Counts per second, following a one second counting time, were recorded for each reaction.
The enzyme activity for each compound is then calculated using the following equation:
[formula] Results In vitro ATM assays
Compounds were assayed for ATM inhibition activity using the method described above. […] These are determined over a range of different concentrations, normally from 100 μM down to 0.1 nM. Such IC50 values are used as comparative values to identify increased compound potencies.

pIC50, > 6.70:
O=C(COc1ccc2c(c1)Sc1cccc(-c3cc(=O)cc(N4CCOCC4)o3)c1S2)N1CCCCC1 [Compound 440]
Nc1ccc2c(c1)Sc1cccc(-c3cc(=O)cc(N4CCOCC4)o3)c1S2 [Compound 21, 2-(7-Amino-thianthren-1-yl)-6-morpholin-4-yl-pyran-4-one]
CC(=O)Nc1ccc2c(c1)Sc1cccc(-c3cc(=O)cc(N4CCOCC4)o3)c1S2 [Compound 22]
O=C(c1ccc2c(c1)Sc1cccc(-c3cc(=O)cc(N4CCOCC4)o3)c1S2)N1CCN(c2ccccc2F)CC1 [Compound 15]
O=C(CNCCCN1CCOCC1)Nc1ccc2c(c1)Sc1cccc(-c3cc(=O)cc(N4CCOCC4)o3)c1S2 [Compound 63]
O=C(CCN1CCCNCC1)Nc1ccc2c(c1)Sc1cccc(-c3cc(=O)cc(N4CCOCC4)o3)c1S2 [Compound 100]
CN1CCC(NCCCN2c3ccccc3Sc3c(-c4cc(=O)cc(N5CCOCC5)o4)cccc32)CC1 [Compound 307]
O=c1cc(-c2cccc3c2Sc2ccc(OCCNCc4ccncc4)cc2S3)oc(N2CCOCC2)c1 [Compound 366]
CN(C)CCN(CCCN1c2ccccc2Sc2c(-c3cc(=O)cc(N4CCOCC4)o3)cccc21)Cc1ccccc1 [Compound 281]
CC1CN(CCCN2c3ccccc3Sc3c(-c4cc(=O)cc(N5CCOCC5)o4)cccc32)CC(C)O1 (stereo not shown) [Compound 257]
CCN1CCN(CC(=O)Nc2ccc3c(c2)Cc2cccc(-c4cc(=O)cc(N5CCOCC5)o4)c2S3)CC1 [Compound 342]
O=C(COc1ccc2c(c1)Cc1cccc(-c3cc(=O)cc(N4CCOCC4)o3)c1S2)NCC1CCCO1 (stereo not shown) [Compound 497]
O=C(COc1ccc2c(c1)Sc1cccc(-c3cc(=O)cc(N4CCOCC4)o3)c1S2)NCc1ccncc1 [Compound 439]
O=C(CN1CCCNCC1)Nc1ccc2c(c1)Sc1cccc(-c3cc(=O)cc(N4CCOCC4)o3)c1S2 [Compound 61]
O=C(CCSc1ncn[nH]1)Nc1ccc2c(c1)Sc1cccc(-c3cc(=O)cc(N4CCOCC4)o3)c1S2 [Compound 104]
O=c1cc(-c2cccc3c2Sc2ccc(OCCNCCc4ccccn4)cc2S3)oc(N2CCOCC2)c1 [Compound 381]
O=c1cc(-c2cccc3c2Sc2ccccc2N3CCCNC(CO)(CO)CO)oc(N2CCOCC2)c1 [Compound 322]
CN1CCN(C(=O)c2ccc3c(c2)Sc2cccc(-c4cc(=O)cc(N5CCOCC5)o4)c2S3)CC1 [Compound 6]
O=c1cc(-c2cccc3c2Sc2ccccc2N3CCCNN2CCCCCC2)oc(N2CCOCC2)c1 [Compound 261]
O=c1cc(-c2cccc3c2Sc2ccccc2N3CCCNCc2ccccn2)oc(N2CCOCC2)c1 [Compound 266]
CC(C)N1CCN(CC(=O)Nc2ccc3c(c2)Cc2cccc(-c4cc(=O)cc(N5CCOCC5)o4)c2S3)CC1 [Compound 341]
CC1(C)OCC(CNCCCN2c3ccccc3Sc3c(-c4cc(=O)cc(N5CCOCC5)o4)cccc32)O1 (stereo not shown) [Compound 321]
CC(=O)N1CCN(CC(=O)Nc2ccc3c(c2)Cc2cccc(-c4cc(=O)cc(N5CCOCC5)o4)c2S3)CC1 [Compound 338]
O=c1cc(-c2ccc(OCCN3CCCCCC3)c3c2Sc2ccccc2S3)oc(N2CCOCC2)c1 [Compound 148]
CN1CCN(CCC(=O)Nc2ccc3c(c2)Sc2cccc(-c4cc(=O)cc(N5CCOCC5)o4)c2S3)CC1 [Compound 94]
O=C(CCNCCN1CCCCC1)Nc1ccc2c(c1)Sc1cccc(-c3cc(=O)cc(N4CCOCC4)o3)c1S2 [Compound 127]
O=c1cc(-c2cccc3c2Sc2ccccc2N3CCCN2CCN(c3ccccc3F)CC2)oc(N2CCOCC2)c1 [Compound 297]
O=C(CNCCO)Nc1ccc2c(c1)Sc1cccc(-c3cc(=O)cc(N4CCOCC4)o3)c1S2 [Compound 57]
NC(=O)C1CCN(S(=O)(=O)c2ccc3c(c2)Cc2cccc(-c4cc(=O)cc(N5CCOCC5)o4)c2S3)CC1 [Compound 469]
O=c1cc(-c2cccc3c2Sc2ccccc2N3CCCNC2CCC(O)CC2)oc(N2CCOCC2)c1 (stereo not shown) [Compound 306]
CCCCNS(=O)(=O)c1ccc2c(c1)Cc1cccc(-c3cc(=O)cc(N4CCOCC4)o3)c1S2 [Compound 457]
O=C(COc1ccc2c(c1)Sc1cccc(-c3cc(=O)cc(N4CCOCC4)o3)c1S2)N[C@@H](CO)C(=O)OCc1ccccc1 [Compound 424]
O=C1NCCN1CCNCCCN1c2ccccc2Sc2c(-c3cc(=O)cc(N4CCOCC4)o3)cccc21 [Compound 287]
O=C(CSc1ncn[nH]1)Nc1ccc2c(c1)Sc1cccc(-c3cc(=O)cc(N4CCOCC4)o3)c1S2 [Compound 65]
O=C(Nc1ccc2c(c1)Sc1cccc(-c3cc(=O)cc(N4CCOCC4)o3)c1S2)c1ccc2nsnc2c1 [Compound 45]
O=C(COc1ccc2c(c1)Sc1cccc(-c3cc(=O)cc(N4CCOCC4)o3)c1S2)N1CCN(c2ccccn2)CC1 [Compound 426]
CCN1CCN(C(=O)COc2ccc3c(c2)Cc2cccc(-c4cc(=O)cc(N5CCOCC5)o4)c2S3)CC1 [Compound 524]
CC(C)NC(=O)CN1CCN(C(=O)c2ccc3c(c2)Sc2cccc(-c4cc(=O)cc(N5CCOCC5)o4)c2S3)CC1 [Compound 14]
O=c1cc(-c2cccc3c2Sc2ccc(S(=O)(=O)N4CCCNCC4)cc2C3)oc(N2CCOCC2)c1 [Compound 489]
O=c1cc(-c2cccc3c2Sc2ccc(S(=O)(=O)NCCO)cc2C3)oc(N2CCOCC2)c1 [Compound 484]
CN1CCCN(CC(=O)Nc2ccc3c(c2)Sc2cccc(-c4cc(=O)cc(N5CCOCC5)o4)c2S3)CC1 [Compound 60]
CN1CCN(CCOc2ccc3c(c2)Sc2cccc(-c4cc(=O)cc(N5CCOCC5)o4)c2S3)CC1 [Compound 361]
O=C(Nc1ccc2c(c1)Sc1cccc(-c3cc(=O)cc(N4CCOCC4)o3)c1S2)C1CCC1 [Compound 34]
O=C(CN1CCN(c2ncccn2)CC1)Nc1ccc2c(c1)Sc1cccc(-c3cc(=O)cc(N4CCOCC4)o3)c1S2 [Compound 84]
O=C(CCNCCO)Nc1ccc2c(c1)Sc1cccc(-c3cc(=O)cc(N4CCOCC4)o3)c1S2 [Compound 96]
O=c1cc(-c2cccc3c2Sc2ccccc2N3CCCN2CCN(c3ccccn3)CC2)oc(N2CCOCC2)c1 [Compound 290]
Cc1noc(C)c1C(=O)Nc1ccc2c(c1)Sc1cccc(-c3cc(=O)cc(N4CCOCC4)o3)c1S2 [Compound 35]
O=c1cc(-c2cccc3c2Sc2ccc(OCCN4CCN(c5ccccn5)CC4)cc2S3)oc(N2CCOCC2)c1 [Compound 399]
CC(=O)N1CCN(C(=O)c2ccc3c(c2)Sc2cccc(-c4cc(=O)cc(N5CCOCC5)o4)c2S3)CC1 [Compound 11]
CCCNCCOc1ccc2c(c1)Cc1cccc(-c3cc(=O)cc(N4CCOCC4)o3)c1S2 [Compound 537]
N#Cc1ccc(C(=O)Nc2ccc3c(c2)Sc2cccc(-c4cc(=O)cc(N5CCOCC5)o4)c2S3)cc1 [Compound 27]
CN(C)CCCNCCCN1c2ccccc2Sc2c(-c3cc(=O)cc(N4CCOCC4)o3)cccc21 [Compound 284]
CCN1CCN(CCC(=O)Nc2ccc3c(c2)Cc2cccc(-c4cc(=O)cc(N5CCOCC5)o4)c2S3)CC1 [Compound 352]
O=C(Nc1ccc2c(c1)Sc1cccc(-c3cc(=O)cc(N4CCOCC4)o3)c1S2)c1ccncc1 [Compound 30]
CCN1CCN(S(=O)(=O)c2ccc3c(c2)Cc2cccc(-c4cc(=O)cc(N5CCOCC5)o4)c2S3)CC1 [Compound 482]
O=C(CN1CCN(CCOCCO)CC1)Nc1ccc2c(c1)Sc1cccc(-c3cc(=O)cc(N4CCOCC4)o3)c1S2 [Compound 79]
CN(C)CCC(=O)Nc1ccc2c(c1)Sc1cccc(-c3cc(=O)cc(N4CCOCC4)o3)c1S2 [Compound 108]
O=C(CNCc1ccncc1)Nc1ccc2c(c1)Sc1cccc(-c3cc(=O)cc(N4CCOCC4)o3)c1S2 [Compound 71]
